Several values for one entry are separate records, joined by “and”; a condition that tells them apart may be missing. Equal entries are not always repeated.
What was measured:
E. coli = assay type: cell-based, Escherichia coli; details: 24 h incubation, MHB, triplicate
Text: (§1) A. baumannii strain (CECT 452, Valencia, Spain, ATCC 15308, Manassas, VA, USA) and Pseudomonas aeruginosa (P. aeruginosa) strain (CECT 4122, Valencia, Spain, ATCC 15692, Manassas, VA, USA) were from the Colección Española de Cultivos Tipo (CECT, Valencia, Spain). The Escherichia coli (E. coli) BL21 (DE3) strain was from Novagen (Darmstadt, Germany). MRC-5 cells were from the American Type Culture Collection (ATCC, Manassas, VA, USA) and HEK293T cell line was kindly provided by Dr. Raquel Pequerul (UAB, Barcelona, Spain).
(§2) The MIC is defined as the lowest concentration of one reagent to prevent visible growth of bacteria. The MIC determination was followed by the protocol described previously. Briefly, bacteria in exponential growth were used to prepare a suspension in MHB with the approximate number of 5 × 10^5 CFU/mL. Next, an aliquot of 90 μL of bacteria suspension was added into each well of the 96-well polypropylene plate. Immediately, 10 μL of peptide diluted by 0.01% acetic acid was added to the corresponding well to have a final concentration ranging from 20 to 0.16 μM. The plate was incubated for 24 h at 37 °C, 100 rpm. The presence or absence of bacterial growth was visually inspected and confirmed by reading OD600 with Tecan Microplate Reader Spark®. Each test was performed in triplicate.

MRC-5 cells = experiment: Cytotoxicity assay (MTT); details: MTT, Mean ± SE, N.D. = no reduction in cell viability detected at the highest concentration
Experimental: (§3) Cytotoxicity was measured for the MRC-5 and HEK293T cell lines by MTT assay. Cells were grown in 5% CO2 at 37 °C with MRC-5 cell line maintained in MEMα and HEK293T in DMEM/F-12 media, both of which were supplemented with 10% FBS. The cells were passaged in 25 cm^2 or 75 cm^2 flasks to prepare 96-well plates with 3 × 10^4 cells/well, which were incubated overnight. Next, serial dilutions of ECPep-D and ECPep-2D-Orn were added to have a final concentration ranging from 100 to 0.78 μM (375 μg/mL to 3 μg/mL) and colistin was added at final concentrations ranging from 300 to 2.34 μM (380 μg/mL to 3 μg/mL) in corresponding wells. After incubation to the specified time, the medium of the plate was replaced by fresh medium containing 0.5 mg/mL MTT solution and the mixture was incubated for 2.5 h in 5% CO2 at 37 °C. The medium was then removed, and formazan was dissolved by adding DMSO. The optical density (OD) was recorded by using a Victor^3 plate reader (PerkinElmer, Waltham, MA, USA) set at 540 nm and 620 nm as a reference. Each test was performed in triplicate.

[1] = tested on: LPSRa (LPS from E. coli EH100, Ra mutant); experiment: LPS affinity assay (BODIPY TR cadaverine displacement); assay type: binding; details: 50% of BC probe bound to LPS displaced; Mean ± SE
Text: (§4) Lipopolysaccharides (LPS) from E. coli O111:B4 (O-LPS), EH100 (Ra mutant), and J5 (Rc mutant), porcine mucin, Mueller Hinton broth (MHB) and Thiazolyl Blue Tetrazolium […] (MTT) were purchased at Sigma-Aldrich (Saint Louis, MO, USA). Colistin sulphate and Dimethyl sulfoxide (DMSO) were from Apollo Scientific (Stockport, UK). BODIPY® TR cadaverine (BC) were from Molecular Probes (Eugene, OR, USA). Mouse TNF-α ELISA Kit (MBS175787, MyBioSource, San Diego, CA, USA) and Mouse LPS ELISA Kit (MBS7700668, MyBioSource, San Diego, CA, USA) were from bioNova científica s.l. (Madrid, Spain) Human TNF-α ELISA set was from BD Biosciences (555212, BD OptEIA^TM, San Jose, CA, USA). Aspidasept® (pep19-2.5) is an antibacterial/anti-inflammatory peptide drug ([…], with C-terminal amide).
(§5) The LPS affinity was assessed using the fluorescent probe BC by an adaptation of the displacement assay reported. Peptides and colistin were serially diluted in a 96-well fluorescence plate from 20 to 0.16 μM in Tris/HCl 50 mM PH 7.4. Next, LPS and BC diluted in the same buffer were added to have the final concentration of 50 μg/mL and 5 μM, respectively. Fluorescence measurements were performed on Tecan Microplate Reader Spark® at 580 nm of excitation wavelength and 620 nm of the emission wavelength at 5 nm for optimal gain. Each test was performed in triplicate.

[2] = tested on: LPSRc (LPS from E. coli J5, Rc mutant); experiment: as above; assay type: binding; details: 50% of BC probe bound to LPS displaced; Mean ± SE
Text: as §4, §5

[3] = tested on: O-LPS (LPS from E. coli O111:B4); experiment: as above; assay type: binding; details: 50% of BC probe bound to LPS displaced; Mean ± SE
Text: as §4, §5

[4] = cited from earlier work
HEK293T cells = tested on: HEK293T cells
Experimental: as §3

A. baumannii [5] = assay type: cell-based, Acinetobacter baumannii; details: 24 h incubation, MHB, triplicate
Text: as §1, §2

A. baumannii [6] = experiment: Efficacy assay in murine acute systemic infection model (survival); assay type: in vivo, Balb/c mice; details: 10^8 CFU/kg A. baumannii, colistin 15 mg/kg
Experimental: An aliquot from an A. baumannii stock stored in 15% glycerol at −80 °C was taken to culture in 3 mL LB overnight at 250 rpm, 37 °C. Next, OD600 reading of A. baumannii overnight culture was performed to adjust to the number of bacteria required (CFU/mL) and then diluted by half with the same volume of 10% porcine mucin, to obtain a solution of selected CFU/mL in 5% mucin for mice inoculation. […] The inoculating volume was decided based on the body weight of each animal (10 mL/kg).
When the sum of the scores reached a maximum value of 7, the mice were euthanized following ethical principles. The infection was first tested at a concentration of 10^9 CFU/kg and then set at 10^7 CFU/kg and 10^8 CFU/kg. […] We also performed an extra assay where mice infected by 10^8 CFU/kg of A. baumannii were treated with colistin, used as a positive control.
To avoid bias, the reagents for these four groups were given to technicians in advance and renumbered randomly, designated as A, B, C, D, respectively. […]
The clinical symptoms were assessed through a scoring system, which contains 9 items, including changes of body weight, behavior, breathing, skin, hair, eyes and gastrointestinal status (see full list at Table S2). […] During the study, when an animal obtained a score of 3 in any of the parameters assessed with a maximum score of 3, euthanasia was carried out to apply the endpoint criteria. […]

LPS = LPS in serum of infected mice by ELISA; assay type: in vivo, Balb/c mice; details: second efficacy assay, colistin 15 mg/kg versus ECPep-D 20 mg/kg, p < 0.1
Experimental: In the second efficacy study, the blood of animals that either died for severe clinical symptoms or were euthanized at the end of the assay, were collected for testing TNF-α and LPS levels by ELISA. In order to check the levels of TNF-α and free LPS, only serum was analyzed, after discarding blood cells by centrifugation. The blood from mice was centrifuged at 3200 rpm for 30 min and the supernatants were collected carefully to ensure that there were no sediments left. Mouse ELISA kits for TNF-α and LPS were used.
According to the description of the manufacturer, LPS level determination is based on the principle of double antibody sandwich technology, where the microplates pre-coated with specific antibodies were used. Following addition of serum samples to the wells, the HRP-Conjugate reagent was added to form an immune complex. After incubation and washing, the unbound enzyme was removed. Then, chromogen substrates were added successively and optical density was recorded using microplate reader set at 450 nm. Sample readings were corrected using the baseline corresponding to serum of mice neither infected nor treated. A calibration standard curve was prepared and final calculated values were positively correlated with the concentration of LPS. Two replicates were performed according to the protocols for the representation of the standard curve and the sample testing.

P. aeruginosa = assay type: cell-based, Pseudomonas aeruginosa; details: 24 h incubation, MHB, triplicate
Text: as §1, §2

Colistin sulphate [reference compound]
MIC E. coli (E. coli): 5 μM and 6.34 μg/mL | LD50 (MRC-5) 24 h (MRC-5 cells; 24 h): >300 μM and >380.26 μg/mL | LD50 (MRC-5) 48 h (MRC-5 cells; 48 h): >300 μM and >380.26 μg/mL | EC50 [1]: 13.1 ± 0.4 µM | EC50 LPSRa [1]: 16.63 ± 0.50 µg/mL | EC50 [2]: 19.2 ± 0.34 µM | EC50 LPSRc [2]: 24.31 ± 0.42 µg/mL | EC50 [3]: 7.87 ± 0.33 µM | EC50 O-LPS [3]: 9.97 ± 0.42 µg/mL | LD50 by intraperitoneal administration ([4]; Swiss albino mice, single injection): 20 to 30 mg/kg | deaths from neurotoxicity ([4]; mice receiving 32 mg/(kg × day), after three doses): three of twelve mice died | LD50 for the intraperitoneal route ([4]; mice, ref U.S. National Library of Medicine ChemIDplus 1264-72-8): 21.8 mg/kg | IC50 (HEK293T) 48h (HEK293T cells; MTT, Mean ± SE): > 380.26 µg/mL | IC50 (HEK293T cells; read-out: IC50 (HEK293T) 48h, MTT, Mean ± SE): > 300 µM | MIC A. baumannii (A. baumannii [5]): 0.31 μM and 0.40 μg/mL | survival rate, first efficacy assay (A. baumannii [6]; i.p. once every 24 h for 3 days from 2 h post inoculum, peptides 10 mg/kg, 3 days): 100% | survival rate after 3 days (72 h), second efficacy assay (A. baumannii [6]; single i.p. dose 2 h post inoculum, peptides 20 mg/kg, 72 h): 100% | concentration of LPS in serum, Day 3 (LPS): slightly increased | MIC P. aeruginosa (P. aeruginosa): 0.31 μM and 0.40 μg/mL

— publication PMC8962335, “In Vivo Evaluation of ECP Peptide Analogues for the Treatment of Acinetobacter baumannii Infection” (Biomedicines, 2022)
